Results published in ChEMBL document CHEMBL3758169, “4-Aminoindazolyl-dihydrofuro[3,4-d]pyrimidines as non-covalent inhibitors of mutant epidermal growth factor receptor tyrosine kinase” (Bioorg Med Chem Lett, 2016).

Columns and labels:
[1] = target: Dual specificity mitogen-activated protein kinase kinase 2 (Homo sapiens) (UniProt P36507); test: Inhibition of MEK2 (unknown origin) at 100 nM
[2] = target: Mitogen-activated protein kinase kinase kinase 3 (Homo sapiens) (UniProt Q99759); test: Inhibition of MEKK3 (unknown origin) at 100 nM
[3] = target: MAP kinase-interacting serine/threonine-protein kinase 2 (Homo sapiens) (UniProt Q9HBH9); test: Inhibition of MKNK2 (unknown origin) at 100 nM
[4] = target: Mitogen-activated protein kinase kinase kinase 11 (Homo sapiens) (UniProt Q16584); test: Inhibition of MLK3 (unknown origin) at 100 nM
[5] = target: Serine/threonine-protein kinase 3 (Homo sapiens) (UniProt Q13188); test: Inhibition of MST2 (unknown origin) at 100 nM
[6] = target: Tyrosine-protein kinase Mer (Homo sapiens) (UniProt Q12866); test: Inhibition of MER (unknown origin) at 100 nM
[7] = target: Serine/threonine-protein kinase Nek9 (Homo sapiens) (UniProt Q8TD19); test: Inhibition of NEK9 (unknown origin) at 100 nM
[8] = tested on: Platelet-derived growth factor receptor alpha (Homo sapiens), P16234 [D842V]; test: Inhibition of PDGFRalpha D842V mutant (unknown origin) at 100 nM
[9] = target: 3-phosphoinositide-dependent protein kinase 1 (Homo sapiens) (UniProt O15530); test: Inhibition of PDK1 (unknown origin) at 100 nM
3-phosphoinositide-dependent protein kinase 1 (Homo sapiens), sequence (O15530 whole entry, canonical isoform): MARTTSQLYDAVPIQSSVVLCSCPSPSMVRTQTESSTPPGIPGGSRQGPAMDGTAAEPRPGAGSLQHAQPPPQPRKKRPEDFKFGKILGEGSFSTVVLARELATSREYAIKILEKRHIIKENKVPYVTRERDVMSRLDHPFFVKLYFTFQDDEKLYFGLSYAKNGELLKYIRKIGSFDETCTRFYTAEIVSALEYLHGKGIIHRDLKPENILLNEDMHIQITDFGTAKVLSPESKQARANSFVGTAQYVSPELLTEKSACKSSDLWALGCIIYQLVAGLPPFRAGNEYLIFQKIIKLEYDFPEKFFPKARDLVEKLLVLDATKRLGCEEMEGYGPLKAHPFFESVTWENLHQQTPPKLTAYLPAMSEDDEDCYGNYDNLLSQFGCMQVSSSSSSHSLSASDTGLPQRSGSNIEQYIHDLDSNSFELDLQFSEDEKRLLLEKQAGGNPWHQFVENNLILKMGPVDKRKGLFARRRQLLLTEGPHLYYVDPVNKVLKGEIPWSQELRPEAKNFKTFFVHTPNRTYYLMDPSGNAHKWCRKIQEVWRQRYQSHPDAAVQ

[10] = target: Phosphatidylinositol 4,5-bisphosphate 3-kinase catalytic subunit delta isoform (Homo sapiens) (UniProt O00329); test: Inhibition of PI3KD (unknown origin) at 100 nM
Phosphatidylinositol 4,5-bisphosphate 3-kinase catalytic subunit delta isoform (Homo sapiens), sequence (O00329 whole entry, canonical isoform): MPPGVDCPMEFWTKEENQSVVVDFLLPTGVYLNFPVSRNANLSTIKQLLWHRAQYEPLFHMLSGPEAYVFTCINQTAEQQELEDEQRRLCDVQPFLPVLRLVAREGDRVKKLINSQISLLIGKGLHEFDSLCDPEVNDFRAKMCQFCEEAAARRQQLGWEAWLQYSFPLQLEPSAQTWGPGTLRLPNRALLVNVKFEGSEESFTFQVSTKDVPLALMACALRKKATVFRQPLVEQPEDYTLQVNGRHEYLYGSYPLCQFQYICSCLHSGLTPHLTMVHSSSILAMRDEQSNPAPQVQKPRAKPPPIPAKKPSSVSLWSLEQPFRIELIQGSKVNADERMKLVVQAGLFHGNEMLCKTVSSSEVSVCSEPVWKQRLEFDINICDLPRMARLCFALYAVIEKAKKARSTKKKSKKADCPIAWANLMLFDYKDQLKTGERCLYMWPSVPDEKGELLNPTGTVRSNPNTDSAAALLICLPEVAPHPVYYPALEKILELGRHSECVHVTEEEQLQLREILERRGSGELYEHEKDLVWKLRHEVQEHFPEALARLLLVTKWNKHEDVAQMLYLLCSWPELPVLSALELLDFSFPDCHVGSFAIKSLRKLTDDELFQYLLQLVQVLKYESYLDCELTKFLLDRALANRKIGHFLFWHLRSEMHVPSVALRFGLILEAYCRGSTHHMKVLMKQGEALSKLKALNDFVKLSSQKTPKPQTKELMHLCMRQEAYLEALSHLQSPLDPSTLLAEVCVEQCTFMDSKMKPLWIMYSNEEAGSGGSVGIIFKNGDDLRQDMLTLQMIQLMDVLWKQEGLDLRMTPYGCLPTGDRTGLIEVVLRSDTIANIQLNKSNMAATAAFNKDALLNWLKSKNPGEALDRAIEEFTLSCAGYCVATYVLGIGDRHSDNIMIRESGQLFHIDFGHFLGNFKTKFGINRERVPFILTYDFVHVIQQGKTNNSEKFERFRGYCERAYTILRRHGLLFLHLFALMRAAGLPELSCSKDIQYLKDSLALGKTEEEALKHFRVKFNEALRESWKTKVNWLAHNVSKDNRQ

[11] = target: Serine/threonine-protein kinase pim-1 (Homo sapiens) (UniProt P11309); test: Inhibition of PIM1 (unknown origin) at 100 nM
Serine/threonine-protein kinase pim-1 (Homo sapiens), sequence (P11309 whole entry, looked up): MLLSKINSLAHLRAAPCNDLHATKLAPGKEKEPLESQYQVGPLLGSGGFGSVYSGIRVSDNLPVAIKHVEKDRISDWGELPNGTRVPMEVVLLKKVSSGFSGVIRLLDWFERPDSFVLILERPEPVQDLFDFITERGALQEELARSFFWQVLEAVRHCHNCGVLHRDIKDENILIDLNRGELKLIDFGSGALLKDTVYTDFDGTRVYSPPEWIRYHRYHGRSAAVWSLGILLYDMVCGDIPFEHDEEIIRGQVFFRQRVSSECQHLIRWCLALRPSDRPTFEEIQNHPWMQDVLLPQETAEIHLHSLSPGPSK

[12] = target: Protein kinase C eta type (Homo sapiens) (UniProt P24723); test: Inhibition of PKCeta (unknown origin) at 100 nM
[13] = target: Protein kinase C gamma type (Homo sapiens) (UniProt P05129); test: Inhibition of PKCgamma (unknown origin) at 100 nM
[14] = target: Protein kinase C iota type (Homo sapiens) (UniProt P41743); test: Inhibition of PKCiota (unknown origin) at 100 nM
[15] = target: Serine/threonine-protein kinase PLK3 (Homo sapiens) (UniProt Q9H4B4); test: Inhibition of PLK3 (unknown origin) at 100 nM
[16] = target: MAP kinase-activated protein kinase 5 (Homo sapiens) (UniProt Q8IW41); test: Inhibition of PRAK (unknown origin) at 100 nM
[17] = target: Ribosomal protein S6 kinase alpha-3 (Homo sapiens) (UniProt P51812); test: Inhibition of RSK2 (unknown origin) at 100 nM
[18] = target: Serine/threonine-protein kinase SIK2 (Homo sapiens) (UniProt Q9H0K1); test: Inhibition of SIK2 (unknown origin) at 100 nM
[19] = target: Testis-specific serine/threonine-protein kinase 1 (Homo sapiens) (UniProt Q9BXA7); test: Inhibition of TSSK1 (unknown origin) at 100 nM
[20] = target: Testis-specific serine/threonine-protein kinase 2 (Homo sapiens) (UniProt Q96PF2); test: Inhibition of TSSK2 (unknown origin) at 100 nM
[21] = target: Eukaryotic elongation factor 2 kinase (Homo sapiens) (UniProt O00418); test: Inhibition of EEF2K (unknown origin) at 100 nM
[22] = target: Mitogen-activated protein kinase 12 (Homo sapiens) (UniProt P53778); test: Inhibition of p38gamma(unknown origin) at 100 nM
[23] = Oral bioavailability in rat at 5 mg/kg; type: ADME, organism-based; details: in vivo
[24] = target: Tyrosine-protein kinase receptor UFO (Homo sapiens) (UniProt P30530); test: Inhibition of AXL (unknown origin) at 100 nM
[25] = target: Cytoplasmic tyrosine-protein kinase BMX (Homo sapiens) (UniProt P51813); test: Inhibition of BMX (unknown origin) at 100 nM
[26] = target: Cyclin-dependent kinase 1/cyclin B1 (Homo sapiens) (UniProt P06493+P14635); test: Inhibition of CDK1/cyclinB (unknown origin) at 100 nM; type: protein-complex assay
[27] = target: Casein kinase I isoform epsilon (Homo sapiens) (UniProt P49674); test: Inhibition of CK1epsilon1 (unknown origin) at 100 nM
[28] = target: Casein kinase I isoform gamma-2 (Homo sapiens) (UniProt P78368); test: Inhibition of CK1gamma2 (unknown origin) at 100 nM
[29] = target: Discoidin domain-containing receptor 2 (Homo sapiens) (UniProt Q16832); test: Inhibition of DDR2 (unknown origin) at 100 nM
[30] = target: Myotonin-protein kinase (Homo sapiens) (UniProt Q09013); test: Inhibition of DMPK (unknown origin) at 100 nM
Myotonin-protein kinase (Homo sapiens), sequence (Q09013 whole entry): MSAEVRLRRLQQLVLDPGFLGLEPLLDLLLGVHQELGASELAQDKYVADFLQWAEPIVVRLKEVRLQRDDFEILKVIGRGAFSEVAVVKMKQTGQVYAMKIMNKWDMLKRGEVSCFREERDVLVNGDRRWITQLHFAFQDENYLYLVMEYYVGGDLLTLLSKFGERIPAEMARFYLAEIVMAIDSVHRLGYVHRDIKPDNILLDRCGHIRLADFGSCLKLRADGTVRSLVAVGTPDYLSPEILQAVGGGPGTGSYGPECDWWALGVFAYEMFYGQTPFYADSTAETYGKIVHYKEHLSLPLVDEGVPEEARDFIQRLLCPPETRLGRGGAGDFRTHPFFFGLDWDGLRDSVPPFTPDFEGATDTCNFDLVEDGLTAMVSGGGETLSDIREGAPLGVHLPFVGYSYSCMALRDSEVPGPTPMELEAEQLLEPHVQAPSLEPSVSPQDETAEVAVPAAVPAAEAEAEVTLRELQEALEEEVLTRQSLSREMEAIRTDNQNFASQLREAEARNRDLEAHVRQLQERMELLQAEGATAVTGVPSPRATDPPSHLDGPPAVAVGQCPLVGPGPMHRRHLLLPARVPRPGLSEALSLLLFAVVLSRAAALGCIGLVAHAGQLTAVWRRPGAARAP

[31] = target: Dual specificity tyrosine-phosphorylation-regulated kinase 1A (Homo sapiens) (UniProt Q13627); test: Inhibition of DYRK1A (unknown origin) at 100 nM
[32] = target: Dual specificity tyrosine-phosphorylation-regulated kinase 3 (Homo sapiens) (UniProt O43781); test: Inhibition of DYRK3 (unknown origin) at 100 nM
[33] = target: Ephrin type-A receptor 1 (Homo sapiens) (UniProt P21709); test: Inhibition of EPHA1 (unknown origin) at 100 nM
[34] = target: Ephrin type-A receptor 8 (Homo sapiens) (UniProt P29322); test: Inhibition of EPHA8 (unknown origin) at 100 nM
[35] = target: Fibroblast growth factor receptor 3 (Homo sapiens) (UniProt P22607); test: Inhibition of FGFR3 (unknown origin) at 100 nM
[36] = target: Tyrosine-protein kinase Fer (Homo sapiens) (UniProt P16591); test: Inhibition of FER (unknown origin) at 100 nM
Tyrosine-protein kinase Fer (Homo sapiens), sequence (P16591 whole entry, looked up): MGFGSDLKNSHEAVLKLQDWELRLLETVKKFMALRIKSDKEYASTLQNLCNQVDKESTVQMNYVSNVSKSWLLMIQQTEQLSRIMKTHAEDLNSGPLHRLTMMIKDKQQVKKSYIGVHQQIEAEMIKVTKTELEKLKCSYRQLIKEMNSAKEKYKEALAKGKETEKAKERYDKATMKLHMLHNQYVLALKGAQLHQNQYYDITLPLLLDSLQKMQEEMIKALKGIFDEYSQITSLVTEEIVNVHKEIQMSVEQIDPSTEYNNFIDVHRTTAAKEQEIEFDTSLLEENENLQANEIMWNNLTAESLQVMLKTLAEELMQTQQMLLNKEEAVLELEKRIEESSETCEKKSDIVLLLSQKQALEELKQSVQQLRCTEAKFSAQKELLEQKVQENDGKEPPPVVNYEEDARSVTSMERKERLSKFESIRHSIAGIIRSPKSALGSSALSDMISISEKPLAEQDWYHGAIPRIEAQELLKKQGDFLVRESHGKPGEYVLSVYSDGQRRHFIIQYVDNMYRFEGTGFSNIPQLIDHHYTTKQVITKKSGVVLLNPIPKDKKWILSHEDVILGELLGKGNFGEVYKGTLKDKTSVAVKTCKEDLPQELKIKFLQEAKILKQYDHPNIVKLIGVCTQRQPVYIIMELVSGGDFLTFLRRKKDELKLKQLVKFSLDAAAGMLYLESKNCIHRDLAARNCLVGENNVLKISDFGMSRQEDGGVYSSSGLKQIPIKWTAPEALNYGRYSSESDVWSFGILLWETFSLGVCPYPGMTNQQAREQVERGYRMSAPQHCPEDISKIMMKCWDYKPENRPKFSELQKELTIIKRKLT

[37] = target: Tyrosine-protein kinase FRK (Homo sapiens) (UniProt P42685); test: Inhibition of FRK (unknown origin) at 100 nM
Tyrosine-protein kinase FRK (Homo sapiens), sequence (P42685 whole entry): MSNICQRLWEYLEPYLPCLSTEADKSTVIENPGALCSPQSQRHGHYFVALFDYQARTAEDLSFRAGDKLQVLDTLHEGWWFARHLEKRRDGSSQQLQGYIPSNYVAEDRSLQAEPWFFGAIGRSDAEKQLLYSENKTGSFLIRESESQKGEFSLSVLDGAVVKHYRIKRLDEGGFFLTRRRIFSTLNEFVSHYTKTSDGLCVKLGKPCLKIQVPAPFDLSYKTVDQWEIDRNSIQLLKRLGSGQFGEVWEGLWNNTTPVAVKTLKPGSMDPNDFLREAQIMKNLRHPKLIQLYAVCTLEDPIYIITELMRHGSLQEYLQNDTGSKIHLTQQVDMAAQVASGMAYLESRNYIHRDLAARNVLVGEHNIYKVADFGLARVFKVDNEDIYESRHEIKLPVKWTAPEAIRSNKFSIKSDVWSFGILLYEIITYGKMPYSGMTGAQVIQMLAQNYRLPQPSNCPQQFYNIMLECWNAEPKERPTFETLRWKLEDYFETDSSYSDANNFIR

[38] = target: G protein-coupled receptor kinase 6 (Homo sapiens) (UniProt P43250); test: Inhibition of GRK6 (unknown origin) at 100 nM
[39] = target: Serine/threonine-protein kinase haspin (Homo sapiens) (UniProt Q8TF76); test: Inhibition of Haspin (unknown origin) at 100 nM
[40] = target: Tyrosine-protein kinase HCK (Homo sapiens) (UniProt P08631); test: Inhibition of HCK (unknown origin) at 100 nM
[41] = tested on: Leucine-rich repeat serine/threonine-protein kinase 2 (Homo sapiens), Q5S007 [G2019S]; test: Inhibition of LRRK2 G2019S mutant (unknown origin) at 100 nM
[42] = target: Protein-tyrosine kinase 6 (Homo sapiens) (UniProt Q13882); test: Inhibition of BRK (unknown origin) at 100 nM
Protein-tyrosine kinase 6 (Homo sapiens), sequence (Q13882 whole entry, looked up): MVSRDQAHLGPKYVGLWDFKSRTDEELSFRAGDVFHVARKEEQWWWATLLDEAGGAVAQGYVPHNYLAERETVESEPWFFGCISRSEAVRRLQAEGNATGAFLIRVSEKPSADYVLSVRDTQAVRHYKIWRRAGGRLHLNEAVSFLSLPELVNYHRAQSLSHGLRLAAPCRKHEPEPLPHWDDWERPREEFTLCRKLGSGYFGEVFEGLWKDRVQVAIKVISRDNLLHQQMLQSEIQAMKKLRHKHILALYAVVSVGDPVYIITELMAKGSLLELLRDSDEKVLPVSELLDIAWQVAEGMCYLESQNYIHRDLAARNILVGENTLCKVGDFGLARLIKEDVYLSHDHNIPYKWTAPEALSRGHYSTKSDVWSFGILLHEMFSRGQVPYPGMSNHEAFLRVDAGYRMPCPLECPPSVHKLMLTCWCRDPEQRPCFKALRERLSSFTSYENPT

[43] = target: Casein kinase II subunit alpha' (Homo sapiens) (UniProt P19784); test: Inhibition of CK2alpha2 (unknown origin) at 100 nM

inhibition [1]: 12.8%
inhibition [2]: 49.3%
inhibition [3]: -2.3%
inhibition [4]: 6.7%
inhibition [5]: -2.4%
inhibition [6]: 6.3%
inhibition [8]: 77.3%
inhibition [9]: 3.4%
inhibition [10]: -7.6%
inhibition [11]: -7.1%
inhibition [12]: 15.5%
inhibition [13]: 16.4%
inhibition [14]: -1.5%
inhibition [15]: -5.4%
inhibition [16]: 5.7%
inhibition [17]: -5.9%
inhibition [18]: 35.3%
inhibition [19]: -0.5%
inhibition [20]: 4%
inhibition [21]: 7.5%
inhibition [22]: 10.3%
bioavailability [23]: 13%
inhibition [24]: -2.2%
inhibition [25]: 13.7%
inhibition [26]: -3.1%
inhibition [27]: 5.1%
inhibition [28]: 3.5%
inhibition [29]: 23.4%
inhibition [30]: 3.3%
inhibition [31]: 9.6%
inhibition [32]: -3.5%
inhibition [33]: 16.1%
inhibition [34]: 24.9%
inhibition [35]: 18.4%
inhibition [36]: 6.9%
inhibition [37]: 85.6%
inhibition [38]: 1.6%
inhibition [39]: 8.1%
inhibition [40]: 65.6%
inhibition [41]: 16%
inhibition [42]: 90.6%
inhibition [43]: 4.2%
Compound: CC1(C)OCc2c(Nc3n[nH]c4ccccc34)nc(-c3cn[nH]c3)nc21
inhibition [7]: -0.2%
